For the data set, the target named is UBE3A-ATS. As to the kind of experiment: mouse, dose not given. Conditions: ASO.

HELM strings list units from the 5' end as sugar, base in round brackets, then linkage (d deoxyribose, r ribose, m 2'-O-methyl, p phosphodiester). Strings are as the collection lists them; they lack the last nucleoside at the 3' end of the tested compound. [moe] = 2'-O-(2-methoxyethyl) (MOE); [sp] = phosphorothioate linkage; [m5C] = 5-methylcytosine

Substance “RNA1{[moe](A)[sp].[moe](G)p.[moe](T)p.[moe](T)p.[moe](T)p.d(T)[sp].d([m5C])[sp].d(G)[sp].d([m5C])[sp].d([m5C])[sp].d([m5C])[sp].d(G)[sp].d(T)[sp].d(T)[sp].d(A)[sp].[moe]([m5C])p.[moe]([m5C])p.[moe](T)[sp].[moe]([m5C])}$$$$ (last 3' nucleoside missing)” displayed a 3 h FOB score of 4 score 0-7.

“RNA1{[moe](T)[sp].[moe]([m5C])p.[moe](T)p.[moe](G)p.[moe](G)p.d(A)[sp].d(A)[sp].d(T)[sp].d([m5C])[sp].d(T)[sp].d(T)[sp].d(G)[sp].d(T)[sp].d(A)[sp].d(G)[sp].[moe](A)p.[moe](G)p.[moe](G)[sp].[moe](A)}$$$$ (last 3' nucleoside missing)” displayed a 3 h FOB score of 2.7 score 0-7.

Substance “RNA1{[moe](G)[sp].[moe](A)p.[moe](T)p.[moe]([m5C])p.d(A)[sp].d([m5C])[sp].d(A)[sp].d(T)[sp].d(T)[sp].d(A)[sp].d([m5C])[sp].d([m5C])[sp].d([m5C])[sp].d(A)[sp].[moe](T)p.[moe]([m5C])p.[moe]([m5C])p.[moe](G)[sp].[moe](T)}$$$$ (last 3' nucleoside missing)” showed a 3 h FOB score of 0 score 0-7.

“RNA1{[moe](T)[sp].[moe](A)p.[moe](A)p.[moe]([m5C])p.[moe](T)p.d(G)[sp].d([m5C])[sp].d(T)[sp].d(T)[sp].d([m5C])[sp].d(A)[sp].d([m5C])[sp].d([m5C])[sp].d(A)[sp].d(T)[sp].[moe](T)p.[moe](T)p.[moe](T)[sp].[moe](G)}$$$$ (last 3' nucleoside missing)”: the 3 h FOB score worked out at 0 score 0-7.

Regarding “RNA1{[moe]([m5C])[sp].[moe](A)p.[moe](T)p.[moe](A)[sp].d([m5C])[sp].d([m5C])[sp].d([m5C])[sp].d(A)[sp].d(G)[sp].d(G)[sp].d(G)[sp].d(T)[sp].[moe](A)p.[moe](G)p.[moe](G)p.[moe](A)[sp].[moe](T)}$$$$ (last 3' nucleoside missing)”, the 3 h FOB score came to 1 score 0-7.

“RNA1{[moe](T)[sp].[moe]([m5C])p.[moe](A)p.[moe](G)p.[moe](T)p.[moe](T)p.d(A)[sp].d(G)[sp].d(G)[sp].d(T)[sp].d(T)[sp].d(A)[sp].d(G)[sp].d(T)[sp].d(G)[sp].d([m5C])[sp].[moe](A)p.[moe]([m5C])[sp].[moe](A)}$$$$ (last 3' nucleoside missing)” registered a 3 h FOB score of 4.8 score 0-7.

For “RNA1{[moe]([m5C])[sp].[moe](A)p.[moe](T)p.[moe]([m5C])p.[moe](T)p.d([m5C])[sp].d(G)[sp].d(G)[sp].d(G)[sp].d(T)[sp].d(A)[sp].d(T)[sp].d(A)[sp].d(T)[sp].d(A)[sp].[moe](A)p.[moe](A)p.[moe](T)[sp].[moe](T)}$$$$ (last 3' nucleoside missing)”, the 3 h FOB score came out at 2 score 0-7.

Take “RNA1{[moe](A)[sp].[moe](T)p.[moe](T)p.[moe](G)p.d(G)[sp].d(T)[sp].d([m5C])[sp].d(A)[sp].d(T)[sp].d([m5C])[sp].d(T)[sp].d([m5C])[sp].d(G)[sp].d(G)[sp].[moe](G)p.[moe](T)p.[moe](A)p.[moe](T)[sp].[moe](A)}$$$$ (last 3' nucleoside missing)”: the 3 h FOB score was 4 score 0-7.

On to “RNA1{[moe](T)[sp].[moe](G)p.[moe](T)p.[moe](G)p.[moe](T)p.d(T)[sp].d(T)[sp].d(T)[sp].d(T)[sp].d([m5C])[sp].d([m5C])[sp].d(A)[sp].d(T)[sp].d(T)[sp].d(T)[sp].[moe](T)p.[moe](T)p.[moe]([m5C])[sp].[moe](T)}$$$$ (last 3' nucleoside missing)”, for which the 3 h FOB score is 0 score 0-7.

“RNA1{[moe](G)[sp].[moe](A)p.[moe](T)p.[moe]([m5C])p.[moe](A)p.[moe]([m5C])[sp].d(A)[sp].d(T)[sp].d(T)[sp].d(A)[sp].d([m5C])[sp].d([m5C])[sp].d([m5C])[sp].d(A)[sp].[moe](T)p.[moe]([m5C])[sp].[moe]([m5C])}$$$$ (last 3' nucleoside missing)” returned a 3 h FOB score of 0 score 0-7.

Substance “RNA1{[moe]([m5C])[sp].[moe](A)p.[moe](G)p.[moe](A)p.[moe](T)p.d(T)[sp].d([m5C])[sp].d([m5C])[sp].d(T)[sp].d(A)[sp].d(A)[sp].d(A)[sp].d(T)[sp].d(A)[sp].d([m5C])[sp].[moe](G)p.[moe]([m5C])p.[moe](A)[sp].[moe]([m5C])}$$$$ (last 3' nucleoside missing)” displayed a 3 h FOB score of 0 score 0-7.

Turning to “RNA1{[moe]([m5C])[sp].[moe](A)p.[moe](A)p.[moe]([m5C])p.[moe](T)p.d(T)[sp].d([m5C])[sp].d(A)[sp].d(T)[sp].d([m5C])[sp].d(A)[sp].d(A)[sp].d(T)[sp].d(A)[sp].d(T)[sp].[moe](T)p.[moe](T)p.[moe]([m5C])[sp].[moe]([m5C])}$$$$ (last 3' nucleoside missing)”, the 3 h FOB score was determined as 1 score 0-7.

“RNA1{[moe](A)[sp].[moe](G)p.[moe]([m5C])p.[moe](T)p.[moe](A)p.d(T)[sp].d([m5C])[sp].d(T)[sp].d(G)[sp].d(T)[sp].d(A)[sp].d([m5C])[sp].d(A)[sp].d(A)[sp].d(A)[sp].[moe](A)p.[moe](T)p.[moe](G)[sp].[moe](G)}$$$$ (last 3' nucleoside missing)” returned a 3 h FOB score of 4 score 0-7.

Regarding “RNA1{[moe](G)[sp].[moe]([m5C])p.[moe](T)p.[moe](G)p.[moe](A)p.[moe](T)p.d([m5C])[sp].d(A)[sp].d([m5C])[sp].d(A)[sp].d(T)[sp].d(T)[sp].d(A)[sp].d([m5C])[sp].d([m5C])[sp].d([m5C])[sp].[moe](A)p.[moe](T)[sp].[moe]([m5C])}$$$$ (last 3' nucleoside missing)”, the 3 h FOB score turned out to be 0 score 0-7.

“RNA1{[moe](A)[sp].[moe](A)p.[moe]([m5C])p.[moe](A)p.[moe](A)p.d([m5C])[sp].d(G)[sp].d(G)[sp].d(T)[sp].d(T)[sp].d(G)[sp].d([m5C])[sp].d(A)[sp].d(G)[sp].d(G)[sp].[moe](G)p.[moe](A)p.[moe]([m5C])[sp].[moe](A)}$$$$ (last 3' nucleoside missing)” registered a 3 h FOB score of 6.8 score 0-7.

“RNA1{[moe](T)[sp].[moe]([m5C])p.[moe](A)p.[moe](G)p.[moe](T)p.d(T)[sp].d(A)[sp].d(G)[sp].d(T)[sp].d([m5C])[sp].d(A)[sp].d(G)[sp].d(G)[sp].d(T)[sp].d(T)[sp].[moe](A)p.[moe](G)p.[moe](G)[sp].[moe](G)}$$$$ (last 3' nucleoside missing)”: the 3 h FOB score is 4.2 score 0-7.

For the substance “RNA1{[moe]([m5C])[sp].[moe](A)p.[moe](T)p.[moe](A)p.[moe]([m5C])[sp].d([m5C])[sp].d([m5C])[sp].d(A)[sp].d(G)[sp].d(G)[sp].d(G)[sp].d(T)[sp].d(A)[sp].[moe](G)p.[moe](G)p.[moe](A)[sp].[moe](T)}$$$$ (last 3' nucleoside missing)”, the 3 h FOB score was 1 score 0-7.

The substance “RNA1{[moe](G)[sp].[moe](T)p.[moe](T)p.[moe](T)p.[moe](T)p.[moe](T)p.d([m5C])[sp].d([m5C])[sp].d(A)[sp].d(T)[sp].d(T)[sp].d(T)[sp].d(T)[sp].d(T)[sp].d([m5C])[sp].d(T)[sp].[moe]([m5C])p.[moe](T)[sp].[moe](T)}$$$$ (last 3' nucleoside missing)” showed a 3 h FOB score of 0 score 0-7.

With “RNA1{[moe](T)[sp].[moe]([m5C])p.[moe](G)p.[moe](G)p.[moe](A)p.d(T)[sp].d(A)[sp].d(T)[sp].d(A)[sp].d(G)[sp].d([m5C])[sp].d(T)[sp].d(T)[sp].d(T)[sp].d(T)[sp].[moe](A)p.[moe]([m5C])p.[moe](A)[sp].[moe](T)}$$$$ (last 3' nucleoside missing)”, the 3 h FOB score is 1 score 0-7.

“RNA1{[moe](T)[sp].[moe]([m5C])p.[moe](A)p.[moe](G)[sp].d(T)[sp].d(T)[sp].d(A)[sp].d(G)[sp].d(G)[sp].d(T)[sp].d(T)[sp].d(A)[sp].[moe](G)p.[moe](T)p.[moe](G)p.[moe]([m5C])[sp].[moe](A)}$$$$ (last 3' nucleoside missing)”: the 3 h FOB score turned out to be 2.3 score 0-7.

“RNA1{[moe](G)[sp].[moe](G)p.[moe](T)p.[moe]([m5C])p.[moe](A)[sp].d(T)[sp].d([m5C])[sp].d(T)[sp].d([m5C])[sp].d(G)[sp].d(G)[sp].d(G)[sp].d(T)[sp].[moe](A)p.[moe](T)p.[moe](A)[sp].[moe](T)}$$$$ (last 3' nucleoside missing)” registered a 3 h FOB score of 6 score 0-7.

Take “RNA1{[moe](A)[sp].[moe](A)[sp].[moe](G)[sp].[moe](G)[sp].[moe](G)[sp].d(T)[sp].d(A)[sp].d(A)[sp].d(T)[sp].d(A)[sp].d([m5C])[sp].d(G)[sp].d(G)[sp].d(A)[sp].d([m5C])[sp].[moe]([m5C])[sp].[moe](T)[sp].[moe]([m5C])[sp].[moe](A)}$$$$ (last 3' nucleoside missing)”: the 3 h FOB score stood at 6.5 score 0-7.

“RNA1{[moe](T)[sp].[moe]([m5C])p.[moe](A)p.[moe](T)p.d([m5C])[sp].d(T)[sp].d([m5C])[sp].d(G)[sp].d(G)[sp].d(G)[sp].d(T)[sp].d(A)[sp].d(T)[sp].d(A)[sp].[moe](T)p.[moe](A)p.[moe](A)p.[moe](A)[sp].[moe](T)}$$$$ (last 3' nucleoside missing)” returned a 3 h FOB score of 4 score 0-7.

Consider “RNA1{[moe](G)[sp].[moe](T)p.[moe](G)p.[moe](T)p.[moe](G)p.d(T)[sp].d(G)[sp].d([m5C])[sp].d(A)[sp].d(A)[sp].d(T)[sp].d(A)[sp].d(G)[sp].d([m5C])[sp].d([m5C])[sp].[moe](T)p.[moe](A)p.[moe](A)[sp].[moe](A)}$$$$ (last 3' nucleoside missing)”, for which the 3 h FOB score turned out to be 3.5 score 0-7.

As for “RNA1{[moe](A)[sp].[moe](G)p.[moe](A)p.[moe](G)p.[moe](T)p.d(A)[sp].d(G)[sp].d(T)[sp].d([m5C])[sp].d(T)[sp].d(A)[sp].d(T)[sp].d(T)[sp].d(G)[sp].d(G)[sp].[moe](T)p.[moe](G)p.[moe](T)[sp].[moe](T)}$$$$ (last 3' nucleoside missing)”, the 3 h FOB score is 3.8 score 0-7.

The substance “RNA1{[moe](G)[sp].[moe](T)p.[moe](A)p.[moe](A)p.[moe](G)p.d(T)[sp].d(A)[sp].d(T)[sp].d(A)[sp].d(G)[sp].d(A)[sp].d(T)[sp].d(G)[sp].d([m5C])[sp].d([m5C])[sp].[moe](T)p.[moe]([m5C])p.[moe](T)[sp].[moe]([m5C])}$$$$ (last 3' nucleoside missing)” returned a 3 h FOB score of 3.8 score 0-7.

(Values after the OligoGym collection.)
